Data as given in patent US20220061324A1, “PESTICIDALLY ACTIVE HETEROCYCLIC DERIVATIVES WITH SULFUR CONTAINING SUBSTITUENTS” (SYNGENTA CROP PROTECTION AG, priority 2018, published 2022).
Like-named read-outs stand apart in the source and are kept apart here.

Assays:
Assay type in all cases: in vivo
[1] = tested on: Plutella xylostella (Diamond Back Moth); experiment: Activity against Plutella xylostella (diamond back moth), artificial diet; conditions: 192 h, read-out: effect in at least one of the two categories (mortality or growth inhibition); for percent effect (mortality or growth inhibition) at 200 ppm: application rate 200 ppm, eggs, 8 days after infestation
Protocol: Example B3: Activity Against Plutella xylostella (Diamond Back Moth)
24-well microtiter plates with artificial diet were treated with aqueous test solutions prepared from 10,000 ppm DMSO stock solutions by pipetting. After drying, Plutella eggs were pipetted through a plastic stencil onto a gel blotting paper and the plate was closed with it. The samples were assessed for mortality and growth inhibition in comparison to untreated samples 8 days after infestation.

[2] = tested on: Diabrotica balteata (Corn Root Worm); experiment: Activity against Diabrotica balteata (corn root worm), maize sprouts sprayed; conditions: 96 h, read-out: effect in at least one of the two categories (mortality or growth inhibition); for percent effect (mortality or growth inhibition) at 200 ppm: application rate 200 ppm, L2 larvae, 4 days after infestation
Protocol: Example B1: Activity Against Diabrotica balteata (Corn Root Worm)
Maize sprouts placed onto an agar layer in 24-well microtiter plates were treated with aqueous test solutions prepared from 10,000 ppm DMSO stock solutions by spraying. After drying, the plates were infested with L2 larvae (6 to 10 per well). The samples were assessed for mortality and growth inhibition in comparison to untreated samples 4 days after infestation.

[3] = tested on: Spodoptera littoralis (Egyptian Cotton Leaf Worm); experiment: Activity against Spodoptera littoralis (Egyptian cotton leaf worm), cotton leaf discs; conditions: foliar, 72 h, read-out: control (mortality, anti-feedant effect or growth inhibition)
Protocol: Example B5: Activity Against Spodoptera littoralis (Egyptian Cotton Leaf Worm)
Cotton leaf discs were placed onto agar in 24-well microtiter plates and sprayed with aqueous test solutions prepared from 10,000 ppm DMSO stock solutions. After drying the leaf discs were infested with five L1 larvae. The samples were assessed for mortality, anti-feeding effect, and growth inhibition in comparison to untreated samples 3 days after infestation. Control of Spodoptera littoralis by a test sample is given when at least one of the categories mortality, anti-feedant effect, and growth inhibition is higher than the untreated sample.

[4] = tested on: Myzus persicae (Green Peach Aphid); experiment: Activity against Myzus persicae (green peach aphid), feeding/contact activity; conditions: 144 h
Protocol: Example B4: Activity Against Myzus persicae (Green Peach Aphid) Feeding/Contact Activity
Sunflower leaf discs were placed onto agar in a 24-well microtiter plate and sprayed with aqueous test solutions prepared from 10,000 ppm DMSO stock solutions. After drying, the leaf discs were infested with an aphid population of mixed ages. The samples were assessed for mortality 6 days after infestation.

[5] = application rate 200 ppm, L1 larvae, 3 days after infestation
[6] = application rate 200 ppm, feeding/contact, mixed ages, 6 days after infestation, read-out: mortality

| Compound | percent effect (mortality or growth inhibition) at 200 ppm [1] | percent effect (mortality or growth inhibition) at 200 ppm [2] | percent control (mortality or growth inhibition) at 200 ppm [1] | percent control (mortality or growth inhibition) at 200 ppm [2] | other results |
| --- | --- | --- | --- | --- | --- |
| CCSc1cc(C2CC2)cnc1-c1ncc2c(OCC(F)(F)C(F)(F)F)cccn12 [Compound P42, 3-(5-cyclopropyl-3-ethylsulfanyl-2-pyridyl)-8-(2,2,3,3,3-penta-fluoropropoxy)imidazo [1,5-a]pyridine] | ≥ 80% | ≥ 80% | – | – | – |
| CCS(=O)(=O)c1ccc(Cl)nc1-c1ncc2c(OCC(F)(F)C(F)(F)F)cccn12 [Compound P30, 3-(6-chloro-3-ethylsulfonyl-2-pyridyl)-8-(2,2,3,3,3-pentafluoropropoxy)imi-dazo[1,5-a]pyridine] | – | – | ≥ 80% | – | percent control (mortality, anti-feedant effect or growth inhibition) at 200 ppm [3]: ≥ 80% |
| CCS(=O)(=O)c1cc(Br)cnc1-c1ncc2c(OCC(F)(F)C(F)(F)F)nccn12 [Compound P4, 3-(5-bromo-3-ethylsulfonyl-2-pyridyl)-8-(2,2,3,3,3-pentafluoropropoxy)imi-dazo[1,5-a]pyrazine] | – | – | ≥ 80% | ≥ 80% | mortality at 200 ppm [4]: ≥ 80%; percent control (mortality, anti-feedant effect or growth inhibition) at 200 ppm [3]: ≥ 80% |
| CCSc1cc(C2CC2)cnc1-c1ncc2c(OCC(F)(F)C(F)(F)F)nccn12 [Compound P22, 3-(5-cyclopropyl-3-ethylsulfanyl-2-pyridyl)-8-(2,2,3,3,3-penta-fluoropropoxy)imidazo [1,5-a]pyrazine] | ≥ 80% | ≥ 80% | – | – | percent control (mortality, anti-feedant effect or growth inhibition) at 200 ppm [3, 5]: ≥ 80% |
| CCSc1cc(Oc2ccccn2)cnc1-c1ncc2c(OCC(F)(F)C(F)(F)F)nccn12 [Compound P20, 3-[3-ethylsulfanyl-5-(2-pyridyloxy)-2-pyridyl]-8-(2,2,3,3,3-penta-fluoropropoxy)imidazo [1,5-a]pyrazine] | ≥ 80% | ≥ 80% | – | – | percent control (mortality, anti-feedant effect or growth inhibition) at 200 ppm [3, 5]: ≥ 80% |
| CCSc1cc(N(C)C(C)=O)cnc1-c1ncc2c(OCC(F)(F)C(F)(F)F)cccn12 [Compound P41, N-[5-ethylsulfanyl-6-[8-(2,2,3,3,3-penta-fluoropropoxy)imidazo [1,5-a]pyridin-3-yl]-3-pyridyl]-N-methyl-acetamide] | ≥ 80% | – | – | – | – |
| CCS(=O)(=O)c1ccc(NC(=O)NC)nc1-c1ncc2c(OCC(F)(F)C(F)(F)F)nccn12 [Compound P9, 1-[5-ethylsulfonyl-6-[8-(2,2,3,3,3-penta-fluoropropoxy)imidazo [1,5-a]pyrazin-3-yl]-2-pyridyl]-3-methyl-urea] | ≥ 80% | ≥ 80% | – | – | – |
| CCS(=O)(=O)c1ccc(N(C)C(=O)C2CC2)nc1-c1ncc2c(OCC(F)(F)C(F)(F)F)cccn12 [Compound P38, N-[5-ethylsulfonyl-6-[8-(2,2,3,3,3-penta-fluoropropoxy)imidazo [1,5-a]pyridin-3-yl]-2-pyridyl]-N-methyl-cyclopropanecarboxamide] | ≥ 80% | ≥ 80% | – | – | percent control (mortality, anti-feedant effect or growth inhibition) at 200 ppm [3, 5]: ≥ 80% |
| CCS(=O)(=O)c1cc(C(C)(C)C#N)cnc1-c1ncc2c(OCC(F)(F)C(F)(F)F)nccn12 [Compound P16, 2-[5-ethylsulfonyl-6-[8-(2,2,3,3,3-penta-fluoropropoxy)imidazo [1,5-a]pyrazin-3-yl]-3-pyridyl]-2-methyl-propanenitrile] | ≥ 80% | ≥ 80% | – | – | mortality at 200 ppm [4, 6]: ≥ 80%; percent control (mortality, anti-feedant effect or growth inhibition) at 200 ppm [3, 5]: ≥ 80% |
| CCSc1cccnc1-c1ncc2c(OCC(F)(F)C(F)F)nccn12 [Compound P5] | – | – | ≥ 80% | ≥ 80% | mortality at 200 ppm [4]: ≥ 80%; percent control (mortality, anti-feedant effect or growth inhibition) at 200 ppm [3]: ≥ 80% |
| CCSc1cc(C(C)(C)C#N)cnc1-c1ncc2c(OCC(F)(F)C(F)(F)F)cccn12 [Compound P46, 2-[5-ethylsulfanyl-6-[8-(2,2,3,3,3-penta-fluoropropoxy)imidazo [1,5-a]pyridin-3-yl]-3-pyridyl]-2-methyl-propanenitrile] | ≥ 80% | – | – | – | – |
| CCS(=O)(=O)c1cccnc1-c1ncc2c(OCC(F)(F)C(F)F)nccn12 [Compound P6, 3-(3-ethylsulfonyl-2-pyridyl)-8-(2,2,3,3-tetrafluoropropoxy)imi-dazo[1,5-a]pyrazine] | – | – | ≥ 80% | ≥ 80% | mortality at 200 ppm [4]: ≥ 80%; percent control (mortality, anti-feedant effect or growth inhibition) at 200 ppm [3]: ≥ 80% |
| CCS(=O)(=O)c1cc(C2CC2)cnc1-c1ncc2c(OCC(F)(F)C(F)(F)F)cccn12 [Compound P40, 3-(5-cyclopropyl-3-ethylsulfonyl-2-pyridyl)-8-(2,2,3,3,3-penta-fluoropropoxy)imidazo [1,5-a]pyridine] | ≥ 80% | ≥ 80% | – | – | mortality at 200 ppm [4, 6]: ≥ 80% |
| CCS(=N)(=O)c1cc(OC(C)(C)C#N)cnc1-c1ncc2c(OCC(F)(F)C(F)(F)F)cccn12 (stereo not drawn) [Compound P49, 2-[[5-(ethylsulfonimidoyl)-6-[8-(2,2,3,3,3-penta-fluoropropoxy)imidazo [1,5-a]pyridin-3-yl]-3-pyridyl]oxy]-2-methyl-propanenitrile] | ≥ 80% | ≥ 80% | – | – | – |
| CCS(=O)(=O)c1cc(Br)cnc1-c1ncc2c(OCC(F)(F)C(F)(F)F)cccn12 [Compound P43, 3-(5-bromo-3-ethylsulfonyl-2-pyridyl)-8-(2,2,3,3,3-pentafluoropropoxy)imi-dazo[1,5-a]pyridine] | – | – | ≥ 80% | ≥ 80% | – |
| CCSc1cccnc1-c1ncc2c(OCC(F)(F)C(F)(F)F)nccn12 [Compound P7, 3-(3-ethylsulfanyl-2-pyridyl)-8-(2,2,3,3,3-pentafluoropropoxy)imi-dazo[1,5-a]pyrazine] | – | – | ≥ 80% | ≥ 80% | mortality at 200 ppm [4]: ≥ 80% |
| CCS(=O)(=O)c1ccc(-n2cncn2)nc1-c1ncc2c(OCC(F)(F)C(F)(F)F)cccn12 [Compound P33, 3-[3-ethylsulfonyl-6-(1,2,4-triazol-1-yl)-2-pyridyl]-8-(2,2,3,3,3-pentafluoropropoxy)imi dazo[1,5-a]pyri-dine] | – | – | ≥ 80% | ≥ 80% | percent control (mortality, anti-feedant effect or growth inhibition) at 200 ppm [3]: ≥ 80% |
| CCS(=O)(=O)c1ccc(N(C)C(C)=O)nc1-c1ncc2c(OCC(F)(F)C(F)(F)F)cccn12 [Compound P37, N-[5-ethylsulfonyl-6-[8-(2,2,3,3,3-penta-fluoropropoxy)imidazo [1,5-a]pyridin-3-yl]-2-pyridyl]-N-methyl-acetamide] | ≥ 80% | ≥ 80% | – | – | mortality at 200 ppm [4, 6]: ≥ 80% |
| CCSc1cc(C2(C#N)CC2)cnc1-c1ncc2c(OCC(F)(F)C(F)(F)F)cccn12 [Compound P53, 1-[5-ethylsulfanyl-6-[8-(2,2,3,3,3-penta-fluoropropxoy)imidazo [1,5-a]pyridin-3-yl]-3-pyridyl]cyclopropane-carbonitrile] | ≥ 80% | ≥ 80% | – | – | – |
